Calls of active or inactive are those of the source. The calls are words filed in the database; no cut-off is given here.
Target: Tubulin (Homo sapiens) (UniProt P68371+Q9H4B7+P0DPH7+P68366+Q13509+Q71U36+P04350+Q3ZCM7+P07437+P68363+Q9BQE3+Q6PEY2+Q13885+Q9BVA1+Q9BUF5)
Assay: Inhibition of tubulin (unknown origin) assessed as inhibition of tubulin polymerization at 10 uM measured for 50 mins by fluorescence based analysis
Format: protein-complex assay

inhibition | Compound
Active | CC[C@]1(O)C[C@@H]2CN(CCc3c([nH]c4ccccc34)[C@@](C(=O)OC)(c3cc4c(cc3OC)N(C)[C@H]3[C@@](O)(C(=O)OC)[C@H](OC(C)=O)[C@]5(CC)C=CCN6CC[C@]43[C@@H]65)C2)C1
Active | C1=C2COCC3=Cc4c(ccc5ccccc45)OC23Oc2ccc3ccccc3c21
Active | C1=C2CCC3=Cc4c(ccc5ccccc45)OC23Oc2ccc3ccccc3c21

Reference: ChEMBL document CHEMBL4680293, “Tubulin inhibitory activity of a novel colchicine-binding compounds based on a dinaphthospiropyranran scaffold” (Bioorg Med Chem, 2021)
